Like-named read-outs stand apart in the source and are kept apart here.
What was measured:
[1] = cited from earlier work
[2] = pKa values from the literature

| pKa ([2]; acetonitrile/water (3/1) and methanol/water (3/1)) | SMILES | pKa ([1]; acetonitrile/water (3/1)) | pKa ([1]; methanol/water (3/1)) | pK, mean value ([2]; mean of pK1 and pK2) |
| --- | --- | --- | --- | --- |
| ~5.5 | CC(C(=O)O)c1cccc(C(=O)c2ccccc2)c1 (stereo not shown) [ketoprofen, 2-(3-benzoylphenyl)propionic acid] | 5.02 | 5.94 | – |
| – | N=C(N)NCCC[C@H](N)C(=O)O [arginine] | – | – | about 5.6 |

Reference: patent publication US20040254243A1 (priority 2001, published 2004)
